According to patent publication US20070197556A1, “Fungicidal Mixtures” (priority 2004, published 2007):

System: Pyrenophora teres
Assay: activity against net blotch of barley caused by Pyrenophora teres, 1 day protective application
Assay type: in vivo
Conditions: individual active compound, 5 ppm in the spray liquor, barley seedlings cultivar Hanna, assessed after 6 days
Description: The active compounds were prepared separately as a stock solution comprising 25 mg of active compound which was made up to 10 ml using a mixture of acetone and/or DMSO and the emulsifier Uniperol® EL (wetting agent having emulsifying and dispersing action based on ethoxylated alkylphenols) in a volume ratio solvent:emulsifier of 99:1. The mixture was then made up with water to 100 ml. The active compounds or mixtures were mixed or diluted with water to the desired concentration.
Use example—activity against net blotch of barley caused by Pyrenophora teres, 1 day protective application
Leaves of potted barley seedlings of the cultivar “Hanna” were sprayed to runoff point with an aqueous suspension having the concentration of active compound stated below. 24 hours after the spray coating had dried on, the test plants were inoculated blotch pathogen. […] After 6 days, the extent of the development of the disease was determined visually in % infection of the entire leaf area.
The visually determined values for the percentages of infected leaf areas were converted into efficacies in % of the untreated control:
The efficacy (E) is calculated as follows using Abbot's formula: E=(1−α/β)·100 • α corresponds to the fungal infection of the treated plants in % and • β corresponds to the fungal infection of the untreated (control) plants in % […]

CC1CCN(c2c(-c3c(F)cc(F)cc3F)c(Cl)nc3ncnn23)CC1 [I, 5-chloro-7-(4-methylpiperidin-1-yl)-6-(2,4,6-trifluorophenyl)[1,2,4]tri-azolo[1,5-a]pyrimidine]
Efficacy in % of the untreated control: 72%
